According to patent US9011853B2, “B7-H4 fusion proteins and methods of use thereof” (Amplimmune, Inc., priority 2009, dated 2015):
Entries after “also recorded” stand apart in the source; their conditions may differ.

Columns and labels:
DBA/1 mice = assay: Therapeutic CIA study AA#80 (male mice), disease score; type: in vivo, mouse; details: male DBA/1 mice; 20 mg/kg IP 3× weekly, 8 doses from Day 24; vs control groups (FIG. 8); 20 mg/kg
Procedure: DBA/1 mice (10 per group) aged 7-9 weeks were used for the CIA model. Mice from several vendors (Jackson Laboratories, Harlan Laboratories, and Taconic Farms) were tested and it was determined that Taconic mice are most appropriate for the CIA studies. Taconic mice develop more consistent and severe disease symptoms and show continued disease progression, while mice from the other vendors often show stable, less severe disease, even in the absence of treatment. female (F) mice in AA#79 and male (M) mice in AA#80, were tested to determine which gender to use in future experiments.
On the day before the study is initiated, the hair on the right flank of each mouse was removed using an electric clipper. A metal identification tag was placed on the right ear of each mouse. On Day 0, mice were immunized with 100 μL of chicken collagen type II/Complete Freund's Adjuvant (CII/CFA) emulsion in the right flank. On Day 20, the hair on the left flank of each mouse was removed using an electric clipper, and on Day 21, mice were immunized with 100 μL of chicken collagen type II/Incomplete Freund's Adjuvant (CII/IFA) emulsion in the left flank. Pre-filled syringes of CII/CFA and CII/IFA emulsion purchased from Hooke Laboratories were used to ensure consistent dosing with and potency of the immunogen.
Early arthritis symptoms, such as erythema and mild swelling, usually appear on Day 21, and on Day 28, more severe symptoms such as swelling in many digits and inflammation extending to the tarsal joint are typically present. Each limb is evaluated for severity of arthritis symptoms three times a week using a widely accepted arthritis severity score system, shown in Table 2. The scores from each of the 4 limbs are summed to yield the disease score of each mouse. […]
Treatment was initiated when the average disease score for the study animals was greater than four. This corresponded to Day 29 in AA#79 and Day 24 in […]. By waiting until animals are symptomatic, it was ensured that the model is performed in a therapeutic rather than prophylactic mode.
B7-H4-Ig, RPA110010, and murine B7-H4-Ig proteins were administered by intraperitoneal (IP) injection 3 times a week for a total of 8 doses. RPA110010 is an extracellular domain variant of B7-H4-Ig, SEQ ID NO:126. Control murine and human IgG proteins were given once a week for a total of 3 doses. […] All proteins were diluted to the desired concentration (500 μg in 500 μL, or 1 mg/mL) with sterile PBS immediately before injection. Vehicle control mice receive Amplimmune formulation buffer diluted 1:10 in PBS, with an injection volume of 500 μL.

[1] = tested on: serum levels of 58 analytes; assay: Serum biomarker analysis, quantitative immunoassay multi-analyte profiling (Rules-Based Medicine RodentMAP v2.9), AA#80; type: in vivo, mouse
Procedure: In AA#80, serum samples were collected on Day 27, Day 34, Day 41 and Day 55 via the submandibular vein. Approximately 200 μL of blood per mouse was collected in Microtainer® serum separator tubes. Serum was removed following centrifugation and stored at <−65° C. until analysis.
Selected serum samples were sent to Rules-Based Medicine (Austin, Tex.) for quantitative immunoassay multi-analyte profiling of serum samples, with the goal of identifying biomarkers that could be used to monitor disease progression and response to B7-H4-Ig treatment. Day 27, Day 34, and Day 41 sera from the three representative mice in the B7-H4-Ig group (tag #3332, 3334, and 3338) and three representative mice in the Synagis® group (tag #3324, 3329, and 3330) were analyzed for levels of 58 analytes using the RodentMAP v2.9 Testing Service.
Data from the Rules-Based Medicine analysis was analyzed using Microsoft Excel and GraphPad Prism software. T-tests were performed to compare the levels of each analyte in the B7-H4-Ig versus Synagis® treated samples. No correction was made for multiple comparisons. Additionally, correlation coefficients were calculated for each analyte versus disease score.

B7-H4-Ig: B7-H4 extracellular domain fused to Ig Fc; bare label is the human protein in Example 3, murine protein in Examples 1, 2, 5, 7-11
disease scores, AA#80 (DBA/1 mice): lower disease scores than mice in the control groups; also recorded: prolonged period of stable disease scores
serum IL-6 levels, difference between Synagis and B7-H4-Ig groups ([1]; AA#80 serum (FIG. 11)): did not reach statistical significance
serum SAP levels ([1]; B7-H4-Ig vs Synagis treated groups): not significantly different
serum MIP-2 levels ([1]; Day 41, vs Synagis treated mice (FIG. 15)): significantly lower
serum ET-1 levels ([1]; Day 41 and overall, vs Synagis treated mice (FIG. 10)): significantly lower
serum MCP-1 levels ([1]; Day 41 and overall, vs Synagis treated mice (FIG. 12)): significantly lower
serum MCP-3 levels ([1]; Day 41 and overall, vs Synagis treated mice (FIG. 14)): significantly lower
serum samples with TNF-α levels above the limit of detection ([1]; all samples (Day 27, 34, 41) (FIG. 16)): none
